Assay results as given in US20240409902A1, “SYSTEMS AND METHODS FOR CULTURING PODOCYTES AND USES THEREOF” (Washington University, priority 2021, published 2024).
Entries after “also recorded” stand apart in the source; their conditions may differ.

Assays:
primary mouse podocytes = experiment: Cell relaxation and strain mapping with microbead-embedded hydrogels after CytoD; assay type: cell-based
Description: Fluorescent microbeads with a diameter of 0.2 μm (Invitrogen, F8801) were added to the hydrogel's pre-cross-linking solution with a 1:60 dilution ratio before the cross-linking step. After solidification, hydrogels were used for the strain mapping as reported earlier. Briefly, primary mouse podocytes were isolated as described above, seeded on the hydrogels, and allowed to spread for 24 hours. Next, the cells were transferred to a live-imaging chamber before adding CytoD to the culture medium (CytoD, Sigma-Aldrich, 22144-77-0; final concentration, 20 μM). In the final step, the culture medium was changed to 10% SDS to remove the attached cells completely. Cell relaxation and microbead movements were recorded immediately after adding CytoD or 10% SDS, and the strain field was calculated using a strain mapping algorithm that was developed in our previous study.
(§1) For counting and scoring cell phenotypes, imaged podocytes were divided into several categories, including (i) cells with SLSs centrally and in the periphery, (ii) cells with SLSs only in the periphery, (iii) cells with loose striated patterns of synaptopodin and myosin IIA instead of a mat of SLSs (i.e., widely spaced SLSs), and, lastly, (iv) cells without SLSs. For measuring cell length, the longest axis of the cell was determined (mostly along the micropattern direction), and the length was determined through ImageJ (v1.53e with Bio-Formats plugin).

primary podocytes = experiment: Myosin II inhibition with blebbistatin: sarcomere-like structures (SLSs) in primary podocytes, immunostained for synaptopodin and myosin IIA; assay type: cell-based, mouse
Description: After spreading, cultured podocytes on the hydrogels or glass were fixed in 4% paraformaldehyde (Electron Microscopy Sciences, 15712) for 10 min at room temperature followed by washing with 1×PBS, three times for 6 min each, and then permeabilized using 0.05% Triton X-100 for 10 min at room temperature. Next, samples were blocked using 2% bovine serum albumin (Sigma-Aldrich, A7906) for 30 min at room temperature before applying the primary antibodies overnight at 4° C. Next, samples were washed with 1×PBS, three times for 6 min each before incubating them with the secondary antibodies in PBS for 1 hour at room temperature. Last, the samples were washed in 1×PBS, three times for 6 min, and prepared for mounting using Invitrogen Slow Fade mounting medium (Invitrogen, S36917). The cover glass holding the sample (hydrogel and cells) was bonded to a second cover glass using nail polish. The primary antibodies used were myosin IIA (BioLegend, 909801, rabbit anti-mouse), myosin IIA (Abnova, clone 3C7, mouse anti-human, NH2-terminus), synaptopodin (Synaptic Systems, 163004, guinea pig anti-mouse), laminin α5 [clone 4C7, mouse anti-human], fibronectin (Sigma-Aldrich, F3648, rabbit anti-human), collagen IV (SouthernBiotech, 1340-01, goat anti-human), nephrin (R&D Systems, AF3159, goat anti-mouse), and α-SMA (Invitrogen, 14-9760-82). Alexa Fluor 555 phalloidin (Thermo Fisher Scientific, A34055) was used for actin staining. For mouse myosin antibodies (clone 3C7), samples were antigen retrieved in TE (Tris-EDTA) buffer (pH 9.0) at 65° C. for 4 hours before the permeabilization step.
Blebbistatin (EMD Millipore, 203389-5) was used to inhibit the function of myosin II in the podocytes. […] After 2 hours of treatment, the samples were washed with PBS and immediately fixed and stained as mentioned above.
Sarcomeric structures were measured using ImageJ (v1.53e with Bio-Formats plugin). Briefly, fluorescence intensity maps were acquired by plotting the intensity along a line drawn perpendicular to the sarcomere structure. For the histogram, the spacing of each sarcomere is calculated by recording the peak location in the intensity map, and n for each group represents the total sarcomere number calculated in that group. For averaged sarcomeric spacing, the mean values were calculated for each intensity map (i.e., each stress fiber that is no less than 6 μm long), while n for each group represents the number of stress fibers analyzed in that group.
as §1

[1] = test system: podocytes from isolated mouse glomeruli; experiment: Glomerular culture and podocyte spreading on ECM-micropatterned hydrogels; assay type: cell-based; settings: glomeruli cultured 2 days on micropatterned PAAm hydrogels
Excerpt: To test which micropatterned ECM proteins best support podocytes, mouse glomeruli were isolated and cultured on hydrogels coated with Lam-521, collagen IV, or fibronectin. […] Furthermore, the PAAm hydrogel was coated with Lam-521 and micropatterned protein-free patches onto the substrate using a PDMS stamp that removed Lam-521, leaving an inverse of the previous Lam-521 micropatterns interdigitated with microscale patches of exposed PAAm.
Next, the PDMS stamp was cleaned by sonication (Branson) for 20 min and washed in 50% ethanol solution before drying under nitrogen flow followed by plasma cleaning for 2 min (Harrick Plasma). Last, the PDMS stamp micropattern areas were soaked in different ECM solutions [laminin 521 (50 μg/ml; Biolamina, LN521-05), fibronectin (Corning, 356008), or collagen IV (Corning, 354233) in phosphate-buffered saline (PBS)] and left to set for 1 hour at room temperature.
After air-drying the ECM proteins atop the PDMS stamp, the excess solution was removed, and the stamp was dried further using nitrogen flow. The freshly prepared hydroxyl-PAAm hydrogel was also dried out by treatment with nitrogen flow. […]

Compound: C=C1[C@@H](C)[C@H]2[C@H](Cc3ccccc3)NC(=O)[C@]23[C@H](OC(C)=O)/C=C/[C@@](C)(O)C(=O)[C@@H](C)C/C=C/[C@H]3[C@@H]1O [CytoD, cytochalasin D]
- cell length before and after CytoD (primary mouse podocytes; 0.9 kPa substrates, 15 min CytoD): most cells elongated along their axes; also recorded: increases in cell length associated with 15 min of CytoD treatment were statistically significant
- cell length before and after CytoD (primary mouse podocytes; 6 kPa substrates, CytoD): Less, but still significant cell relaxation
- substrate strains associated with treatment (primary mouse podocytes; 6 kPa substrates, CytoD compared with subsequent SDS treatment): much larger than those associated with subsequent SDS treatment
- cell relaxation after actin disruption (primary mouse podocytes; reseeded primary podocytes, CytoD 20 μM, video recording): significant cell relaxation

Compound: Cc1ccc2c(c1)C(=O)C1(O)CCN(c3ccccc3)C1=N2 (centres unmarked) [blebbistatin, Blebbistatin]
- SLS formation (primary podocytes; 10 nM blebbistatin, 0.2- or 0.9-kPa hydrogels (FIG. 4F)): SLSs failed to form; also recorded: caused the loss of SLSs with a lower concentration of blebbistatin
- SLS formation and sarcomeric spacing (primary podocytes; 10 nM blebbistatin, 6.0-kPa hydrogels or glass substrates (FIGS. 4F and G), listed as Blebb): myosin inhibition led to wider sarcomeric spacing
- effect on SLSs (primary podocytes; 2 μM blebbistatin (milder myosin inhibition)): insufficient to disrupt the SLSs at the cell periphery but sufficient to disrupt those in the centers of the cells
- effect on SLSs (primary podocytes; 10 μM blebbistatin, 2 hours, 6.0-kPa PAAm hydrogels and cover glass with Lam-521): caused aggregation of synaptopodin in the center of the cells and increased sarcomeric spacing in SLSs that persisted at the cell periphery
- effect on SLSs (primary podocytes; 100 μM blebbistatin, 2 hours, 6.0-kPa PAAm hydrogels and cover glass with Lam-521): nearly eliminated SLSs
- disruption or loss of SLSs, concentration not given (primary podocytes; podocytes on glass or patterned hydrogels (FIGS. 4D and E)): disrupted the sarcomeric structures of SLSs in a way that depended on the dose, substrate stiffness, and position; also recorded: caused a marked loss of SLSs

Compound: human laminin α5β2γ1 trimer [Lam-521]
- podocyte population of micropatterns [1]: podocytes populated micropatterns coated with Lam-521
